Results reported in patent US12275685B2, “Oligo-benzamide analogs and their use in cancer treatment” (Board of Regents, The University of Texas System, priority 2018, dated 2025).
Each block holds one compound with its values, some of them ahead of it.

What was measured:
[1] = tested on: MCF-7 MT-ERα Y537S and D538G cells; type: cell-based; conditions: comparators at 200 nM in MCF-7 MT-ERα Y537S cells
MCF-7 MT-ERα Y537S cells = type: cell-based; conditions: 200 nM
MT-ERα [2] = assay: MT-ERα protein levels; type: cell-based
vitamin D receptor (VDR) = target: T1, vitamin D receptor (VDR) (Homo sapiens, UniProt P11473); assay: Vitamin D receptor inhibition; type: cell-based
T1 construct: endogenous in cells; host or cells: cancer cells

breast cancer cells = assay: Growth inhibition of breast cancer cells; type: cell-based; conditions: relative to ovarian cancer cells
From the text: (§1) In addition, another tris-benzmaide compound TK208 was synthesized and tested against breast cancer and ovarian cancer cell lines (FIGS. 10-15). […] These compounds (e.g., TK41, TK208, TK308 (FIG. 21), TK309 (FIG. 22), TK314, TK315) are extremely potent compounds that inhibit tumor growth and kill breast and ovarian cancer cells and as such, they are superb therapeutic candidates for such diseases.

MT-ERα [3] = assay: RNA sequencing of MT-ERα transcriptional programme; type: cell-based; conditions: MCF-7 and ZR-75 cells expressing D538G and Y537S MT-ERα
From the text: FIGS. 66A-D: (FIG. 66A) Effect of ERX-315 on ERa DNA binding on the promoters of 5 canonical ERα-regulated genes with ERa ChIP in MCF-7 expressing D538G MT-ERα in the absence and presence of estradiol.
Prior studies have shown that MT-ERα drives a canonical ERα transcriptional programme, both in the absence and presence of estradiol. RNA sequencing studies indicate that ERX-315 alters the transcriptional heatmap in MCF-7 and ZR-75 cells expressing D538G and Y537S MT-ERα (FIG. 66B, data shown for MCF-7 cells expressing D538G MT-ERα).

ovarian cancer cells = assay: Growth inhibition of ovarian cancer cells; type: cell-based
From the text: FIGS. 10A & 10B show effects of TK208 against cancer cells.
as §1

[4] = tested on: WT- and MT-ERα-driven cell lines (MCF-7, ZR-75); assay: Anti-proliferative activity in WT- and MT-ERα-driven cell lines; type: cell-based
OCa cells = assay: MTT assay in OCa cells; type: cell-based
Procedure: FIGS. 12A-12D show the effect of TK208 against ovarian cancer cell lines ES2 (FIGS. 12A & 12B) and SKOV3 (FIGS. 12C & 12D).
FIGS. 42A-D: OCa cells were treated with ERX-11 (FIG. 42A) or ERX-208 (FIG. 42B). Primary OCa cells derived from ascites were treated with ERX-208 for 72 h (FIG. 42C) and cell viability by MTT assays. (FIG. 42D) Effect of ERX-208 on viability of IOSE cells was measured using MTT assays and TOV21G was used as +ve control.
ERX-208. […] Functionally, ERX-208 causes growth inhibition of OCa cells, as noted by MTT assays using five established OCa cells (ES2, SKOV3, A2780, TOV21G, TOV112D) and five primary OCa cells derived from HGSOC patient ascites (AS21, AS23, AS25, AS28, AS29) (FIGS. 42B-C). […] The inventor noted an IC50 of ˜50-100 nM for ERX-208 both for inducing ERS and in reducing the growth of OCa cells.

ZR-75 MT-ERα cells = assay: Colony formation, ZR-75 MT-ERα; type: cell-based
Procedure: The 200 nM dose for these drugs reflects the level at which each of these drugs has a significant effect on spheroid formation in the MCF-7 WT-ERa cells. Taken together, these studies indicate that TX-542 has significant activity against both WT-ERα and MT-ERα driven ERα+ BC cell lines and is a worthwhile candidate for further study.

ERα = ERα (Homo sapiens, UniProt P03372); type: cell-based; conditions: WT-ERα
lipase activity of LIPA = target: T2, lipase activity of LIPA (Homo sapiens, UniProt P38571); assay: Lipase activity assay; type: biochemical; conditions: SUM-159 cells
T2 construct: lipase activity of parental SUM-159 (WT) and SUM-159 cells with LIPA KO; endogenous in cells; host or cells: SUM-159 (parental)
From the text: FIGS. 39A-N: (FIGS. 39A-E) Predicted binding mode of ERX-41 (colored in green) on the human lysosomal acid lipase (LAL, PDB code: 6V7N, LXXLL (SEQ ID NO: 1) domain colored in orange). (FIG. 39F) PDB structure of LAL protein showing relative positions of the catalytic domain (with H274Y MT) and the LXXLL (SEQ ID NO: 1) domain (L242P MT). (FIG. 39G) Evaluation of the effect of ERX-41 and lalistat (known lipase inhibitor) on lipase activity of parental SUM-159 (WT) and SUM-159 cells with LIPA KO. (FIG. 39H) Evaluation of basal lipase activity in parental SUM-159 (WT), SUM-159 cells with LIPA KO (KO), SUM-159 cells with LIPA KO and with reconstitution of either WT LIPA (KO+WT), H274Y MT-LIPA (KO+H274Y), DLXXLL (SEQ ID NO: 2) MT-LIPA (KO+DLXXLL (SEQ ID NO: 2)) or L242P MT-LIPA (KO+L242P). Protein expression of LAL and control vinculin in these cells are shown below (FIG. 391) Cellular lysates from described SUM-159 cells were incubated with biotinylated ERX-11 or biotinylated ERX-41 and then subject to a streptavidin column. Elutants were then evaluated for LIPA pulldown by western blotting. (FIG. 39J) Dose response curve to increasing concentrations of ERX-41 in described SUM-159 cells. (FIGS. 39K-M) Effect of vehicle or 1 μM ERX-41 on induction of UPR genes at the protein level (FIG. 39K) or RNA level (FIGS. 39L-M). […]

[5] = tested on: BC cells expressing MT-ERα (MCF-7, ZR-75, T47-D); assay: Cell titer glo antiproliferative assay in MT-ERα BC cells; type: cell-based; conditions: T47-D Y537S MT
From the text: FIG. 52: Comparative efficacy of TX-542 and SERDs in BC cells expressing WT and/or MT ERα: Using CRISPR-Cas9, both copies of WT ERα genes were knocked out in ZR-75 and T47-D, while only one copy of WT Era was knocked out in MCF-7 cells. Following knockout of WT ERα clones with stable expression of either Y537S ERα MT or the D538G ERα MT were selected. […] ERα-negative TNBC cells (SUM-159 and MDA-MB-231) were used as controls. Dose response curves were generated for ERX-11, TX-542 and SERDs using cell titer glo assays. IC50 values for each cell line and drug were calculated and tabulated. Tam=tamoxifen, ICI=fulvestrant, GDC-0810=Genentech SERD, AZD-9496 Astra Zeneca SERD, RAD-1901=Radius SERD, Palbo=Palbociclib. IC50 values<50 nM are shown in red.
TX-542. TX-542 was potent (IC50˜20-50 nM) as an antiproliferative agent against expressing MT-ERα, both in genetically modified MCF-7 cells with one WT-ERα allele and one MT-ERα allele introduced by CRISPR and genetically modified ZR-75 or T47-D cells in which both copies of WT-ERα alleles were replaced using CRISPR with MT-ERα. TX-542 had no activity against ER-null (SUM-159 or MDA-MB-231 cells) or non-tumorigenic breast epithelial cells, such as human mammary epithelial cells (HMEC). […] In addition, these agents are not able to consistently target all the MT-ERα forms in distinct genetic contexts, as shown in FIG. 52 and as reported by others.

T1 sequence (P11473 whole entry): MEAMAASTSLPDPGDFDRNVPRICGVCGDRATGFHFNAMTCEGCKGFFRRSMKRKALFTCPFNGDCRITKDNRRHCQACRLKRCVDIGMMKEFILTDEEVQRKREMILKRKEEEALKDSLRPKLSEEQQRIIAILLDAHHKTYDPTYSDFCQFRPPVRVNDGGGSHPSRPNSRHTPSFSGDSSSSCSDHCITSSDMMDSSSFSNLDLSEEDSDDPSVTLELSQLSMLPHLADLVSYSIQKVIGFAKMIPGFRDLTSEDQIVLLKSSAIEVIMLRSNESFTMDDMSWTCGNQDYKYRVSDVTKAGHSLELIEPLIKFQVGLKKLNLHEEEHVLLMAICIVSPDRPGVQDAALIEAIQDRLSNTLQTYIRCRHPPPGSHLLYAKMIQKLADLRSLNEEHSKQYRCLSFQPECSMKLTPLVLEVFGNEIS
T2 sequence (P38571 77-399): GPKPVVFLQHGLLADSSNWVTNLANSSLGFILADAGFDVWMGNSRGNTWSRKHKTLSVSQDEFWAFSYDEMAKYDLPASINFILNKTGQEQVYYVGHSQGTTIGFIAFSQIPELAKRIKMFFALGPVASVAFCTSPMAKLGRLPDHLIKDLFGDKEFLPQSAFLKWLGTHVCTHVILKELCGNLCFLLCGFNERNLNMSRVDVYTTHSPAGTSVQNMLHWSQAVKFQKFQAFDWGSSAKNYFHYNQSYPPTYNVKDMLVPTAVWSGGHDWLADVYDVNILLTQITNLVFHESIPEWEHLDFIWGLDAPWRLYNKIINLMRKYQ
Chain of ERα (P03372 whole entry): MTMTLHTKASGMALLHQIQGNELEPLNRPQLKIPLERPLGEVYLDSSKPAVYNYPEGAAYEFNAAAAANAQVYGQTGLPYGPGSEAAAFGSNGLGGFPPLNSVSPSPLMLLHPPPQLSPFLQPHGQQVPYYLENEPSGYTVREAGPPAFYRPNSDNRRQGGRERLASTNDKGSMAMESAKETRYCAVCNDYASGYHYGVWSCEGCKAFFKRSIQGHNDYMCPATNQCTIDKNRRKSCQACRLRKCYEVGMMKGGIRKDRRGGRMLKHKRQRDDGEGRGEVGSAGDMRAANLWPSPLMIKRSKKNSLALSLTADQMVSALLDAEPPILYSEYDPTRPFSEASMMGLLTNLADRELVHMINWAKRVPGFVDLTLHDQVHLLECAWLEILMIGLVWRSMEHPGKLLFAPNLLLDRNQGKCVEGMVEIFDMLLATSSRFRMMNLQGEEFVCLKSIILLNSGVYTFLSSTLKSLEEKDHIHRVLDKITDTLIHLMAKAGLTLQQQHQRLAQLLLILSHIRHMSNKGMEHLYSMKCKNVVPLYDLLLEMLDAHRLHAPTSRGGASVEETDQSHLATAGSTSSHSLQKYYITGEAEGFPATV

Structure (SMILES): CC/C(=C(/c1ccc(/C=C/C(=O)O)cc1)c1ccc2[nH]ncc2c1)c1ccc(F)cc1Cl [GDC-0810]
spheroid size or architecture [1]: neither ERX-11, palbociclib, GDC-0810 nor AZD-9496, tamoxifen nor fulvestrant (at 200 nM) significantly disrupted spheroid size or architecture
soft agar colony formation (MCF-7 MT-ERα Y537S cells): neither the parental ERX-11, tamoxifen nor GDC0810 SERD (at the same concentrations) had an effect on colony formation
ability to decrease MT-ERα protein levels (MT-ERα [2]): neither fulvestrant nor GDC-0810 were able to decrease MT-ERα protein levels

inhibition of VDR (vitamin D receptor (VDR)): high potency
Structure (SMILES): CC(C)COc1cc(C(=O)Nc2ncc[nH]2)ccc1NC(=O)c1ccc(NC(=O)c2ccc([N+](=O)[O-])c(OCCO)c2)c(OCC(C)C)c1 [YL144]

Structure (SMILES): CC(C)COc1cc(C(=O)Nc2ccc(C(=O)N[C@H]3CC[C@H](C)CC3)cc2OCC(C)C)ccc1NC(=O)c1ccc(F)c(OCCO)c1 [TK314]
activity against breast cancer cells (breast cancer cells): significantly less activity against breast cancer cells
MT-ERα transcriptional programme (MT-ERα [3]): neither tamoxifen nor ERX-314 is able to alter the ERα-regulated transcriptome
IC50 (ovarian cancer cells): 10 to 50 nM
activity against ovarian cancer cells (ovarian cancer cells): unique activity against ovarian cancer cells
IC50 [4]: 1500 to 5000 nM

Structure (SMILES): CC/C(=C(\c1ccccc1)c1ccc(OCCN(C)C)cc1)c1ccccc1 [tamoxifen]
spheroid size or architecture [1]: neither ERX-11, palbociclib, GDC-0810 nor AZD-9496, tamoxifen nor fulvestrant (at 200 nM) significantly disrupted spheroid size or architecture
soft agar colony formation (MCF-7 MT-ERα Y537S cells): neither the parental ERX-11, tamoxifen nor GDC0810 SERD (at the same concentrations) had an effect on colony formation
MT-ERα transcriptional programme (MT-ERα [3]): neither tamoxifen nor ERX-314 is able to alter the ERα-regulated transcriptome

Structure (SMILES): CC(C)COc1cc(C(N)=O)ccc1NC(=O)c1ccc(NC(=O)c2ccc([N+](=O)[O-])c(OCCO)c2)c(OCC(C)C)c1 [ERX-11, reference compound]
spheroid size or architecture [1]: neither ERX-11, palbociclib, GDC-0810 nor AZD-9496, tamoxifen nor fulvestrant (at 200 nM) significantly disrupted spheroid size or architecture
activity against OCa cells / cell viability (OCa cells): limited activity
soft agar colony formation (MCF-7 MT-ERα Y537S cells): neither the parental ERX-11, tamoxifen nor GDC0810 SERD (at the same concentrations) had an effect on colony formation

time to WT-ERα degradation (ERα): ≤ 4 h
Structure (SMILES): C[C@]12CC[C@@H]3c4ccc(O)cc4C[C@@H](CCCCCCCCC[S+]([O-])CCCC(F)(F)C(F)(F)F)[C@H]3[C@@H]1CC[C@@H]2O (stereo partly shown) [fulvestrant]
spheroid size or architecture [1]: neither ERX-11, palbociclib, GDC-0810 nor AZD-9496, tamoxifen nor fulvestrant (at 200 nM) significantly disrupted spheroid size or architecture
soft agar colony formation (MCF-7 MT-ERα Y537S cells): significantly affected colony formation
ability to decrease MT-ERα protein levels (MT-ERα [2]): neither fulvestrant nor GDC-0810 were able to decrease MT-ERα protein levels
colony formation in ZR-75 MT-ERα cells (ZR-75 MT-ERα cells): activity was not seen

effect on lipase activity of LIPA (lipase activity of LIPA): attenuated lipase activity
Structure (SMILES): O=C(Oc1nsnc1N1CCCCC1)N1CCCCC1 [lalistat, reference compound]

Structure (SMILES): C[C@@H]1Cc2c([nH]c3ccccc23)[C@@H](c2c(F)cc(/C=C/C(=O)O)cc2F)N1CC(C)(C)F [AZD-9496]
spheroid size or architecture [1]: neither ERX-11, palbociclib, GDC-0810 nor AZD-9496, tamoxifen nor fulvestrant (at 200 nM) significantly disrupted spheroid size or architecture
soft agar colony formation (MCF-7 MT-ERα Y537S cells): significantly affected colony formation
colony formation in ZR-75 MT-ERα cells (ZR-75 MT-ERα cells): activity was not seen
activity against T47-D Y537S MT [5]: potent activity
